This note sets out measurements from PubChem BioAssay (NCI).

Holding throughout (assay): NCI anticancer screen, dose series, 48 h
For assay [1], the system named is OVCAR-5 ovarian.
Assay [2] deals with SR leukemia.
In assay [3] the test system is TK-10 renal.
Assay [4] has as its system HCT-116 colon.
Assay [5] has as its system SF-295 CNS.
Assay [6] relates to SNB-19 CNS.
In assay [7] the test system is LOX IMVI melanoma.
Assay [8] relates to OVCAR-8 ovarian.
In assay [9] the test system is M14 melanoma.
The subject of assay [10] is HT29 colon.

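Method: 48-hour compound exposure of cells in 96-well plates, five concentrations, linear interpolation of endpoints. GI50 = concentration required for 50% inhibition of growth. TGI denotes the concentration required for complete inhibition of growth.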

In the case of `CCCCCCCCCCCC[n+]1ccccc1` (tested in a mixture with another compound), the GI50 is 1.03 µM in [1]; 0.156 µM in [2]; 0.427 µM in assay [3]; 0.548 µM in [4]; 0.712 µM in assay [5]; 1.29 µM in [6]. For the same molecule, the GI50 was 0.691 µM in assay [7], 0.777 µM in assay [8], 1.1 µM in [9] and 0.28 µM in [10]. For the same molecule, the TGI in assay [1] turned out to be 5.85 µM; in assay [2], 3.11 µM; in assay [3] it was 1.86 µM; in assay [4], 2.62 µM; in [5], 2.52 µM; in [6], 3.48 µM. Moreover, the TGI worked out at 2.41 µM in assay [7], 11.3 µM in [8] and 4.21 µM in assay [10].
Regarding `CCC(=C(c1ccc(OCCCN(C)C)cc1)c1ccc(OCCCN(C)C)cc1)c1ccc(Cl)cc1`, the GI50 in assay [1] was 2.48 µM; in [2], 0.288 µM; in assay [3], 3.26 µM; in [4], 0.447 µM; in assay [5] it was 2.35 µM; in assay [6] it was 0.921 µM. The GI50 was 0.287 µM in assay [7], 0.933 µM in assay [8], 0.302 µM in assay [9] and 0.395 µM in [10]. Besides, the TGI in assay [1] worked out at 4.8 µM; in assay [2], 0.716 µM; in assay [3], 6.01 µM; in assay [4] it was 1.15 µM; in assay [5], 4.61 µM; in assay [6] it was 3.05 µM. The TGI was 0.541 µM in assay [7], 3.37 µM in assay [8], 0.577 µM in [9] and 0.966 µM in assay [10].
Consider `Cc1cc(Nc2nc(SCc3ccc(C(=O)Nc4ccc(F)cc4N)cc3)nn3cccc23)n[nH]1`, for which the GI50 was 0.657 µM in assay [1]; 0.068 µM in assay [2]; 1.21 µM in assay [3]; 0.494 µM in assay [4]; 0.354 µM in [5]; 0.536 µM in [6]. Further, the GI50 is 0.665 µM in [7], 0.483 µM in assay [8], 0.289 µM in [9] and 0.322 µM in assay [10]. Further, the TGI is greater than 100 µM in assay [1]; 63.1 µM in [2]; 7.33 µM in [3]; 20.4 µM in assay [4]; 25.9 µM in assay [5]; greater than 100 µM in assay [6]. Moreover, the TGI is greater than 100 µM in assay [7], 88 µM in assay [8], 15.7 µM in assay [9] and 10.1 µM in assay [10].
In the case of `CCCCCCCCCCN=C(c1ccc(N(C)C)cc1)c1ccc(N(C)C)cc1`, the GI50 is 7.65 µM in assay [1]; 0.211 µM in [2]; 3.81 µM in assay [3]; 0.423 µM in [4]; 0.63 µM in [5]; 1.06 µM in [6]. Moreover, the GI50 was 0.601 µM in assay [7], 2.09 µM in assay [8], 0.328 µM in [9] and 0.351 µM in assay [10]. The TGI is greater than 100 µM in [1]; greater than 46.8 µM in assay [2]; 49.7 µM in assay [3]; 32.9 µM in assay [4]; 13.7 µM in assay [5]; greater than 76 µM in assay [6]. In addition, the TGI in assay [7] was greater than 96.1 µM; in assay [8], greater than 59.5 µM; in assay [9], 26.4 µM; in assay [10] it was 18.5 µM.
For the molecule `CC(=O)OCC1OC(n2cc([N+](=O)[O-])c(=O)[nH]c2=O)C(OC(C)=O)C(OC(C)=O)C1OC(C)=O` (centres undefined), the TGI in [1], in assay [2], in assay [3], in assay [4], in assay [5] and in assay [6] was greater than 100 µM each time. Also, the TGI in assay [7], in [8], in [9] and in assay [10] was greater than 100 µM in each case.
Regarding `O=C(/C=C/c1ccccc1)CC(c1ccccc1)N1CCOCC1` (centres undefined), the GI50 is 9.79 µM in assay [1]; 2.71 µM in assay [2]; 8.63 µM in assay [3]; 1.15 µM in assay [4]; 2.7 µM in [5]; 9.8 µM in assay [6]. In addition, the GI50 in assay [7] was 0.371 µM; in [8], 4.57 µM; in assay [9], 1.79 µM; in [10] it was 3.7 µM. In addition, the TGI in assay [1] was found to be 22.1 µM; in [2], 8.92 µM; in assay [3] it was 24.5 µM; in assay [4] it was 2.37 µM; in assay [5], 10.5 µM; in assay [6], 21.9 µM. The TGI came out at 1.36 µM in assay [7], 17.3 µM in assay [8], 3.41 µM in assay [9] and 16.7 µM in [10].
For the molecule `Cc1cc2c(Br)cc(Br)c(O)c2nc1C(=O)c1ccccc1`, the TGI in assay [1] is greater than 68.5 µM; in [2], greater than 100 µM; in [3], greater than 100 µM; in assay [4], greater than 72.8 µM; in assay [5], greater than 56.4 µM; in assay [6], greater than 100 µM. Besides, the TGI in [7] was greater than 86 µM; in assay [8], greater than 100 µM; in assay [9], greater than 60.2 µM; in [10], greater than 79.1 µM.
Consider `O=C1C=CC(=O)N1Nc1ccc([N+](=O)[O-])cc1[N+](=O)[O-]`, for which the TGI is greater than 100 µM in assay [1]; greater than 63.1 µM in assay [2]; greater than 100 µM in assay [3]; greater than 100 µM in assay [4]; greater than 100 µM in [5]; greater than 100 µM in assay [6]. The TGI in [7] is greater than 100 µM; in assay [8], greater than 100 µM; in [9] it was 40 µM; in assay [10] it was greater than 100 µM.
Consider `Cc1cn(C2OC(C)(CO)C(O)C2O)c(=O)[nH]c1=O` (centres undefined), for which the TGI in assay [1], in assay [2], in assay [3], in assay [4], in assay [5] and in assay [6] was greater than 100 µM in each case. For the same molecule, the TGI in assay [7], in assay [8], in assay [9] and in assay [10] was greater than 100 µM throughout.
